Each structure is given as a SMILES string. Like-named read-outs stand apart in the source and are kept apart here. A value given as a limit tells only on which side of the number the result lay.

Assay [1] has as its target T1, HPK1 kinase (Homo sapiens, UniProt Q92918). Description: In vitro HPK1 kinase inhibition assay (Caliper mobility shift assay). As to conditions: for inhibition at 50 µM: read-out: Inhibition (%) 50 μM, 50 μM, duplicate, mean ± SD.
Protocol: The mixture was centrifuged at 1,000 rpm for 30 s and then mixed and incubated at room temperature for 10 min. […] The plate was incubated at room temperature for 2 h. Finally, 30 μL terminated buffer was added to terminate the kinase reaction. Conversion rate data were read with Caliper EZ ReaderⅡ. The IC50 values of concentration-dependent curves were fitted by GraphPad Prism 6.0.
In the next assay the target is WT HPK1 kinase. The arrangement: method as in Johnson et al. (2019). As to conditions: WT HPK1 kinase in vitro; ref Johnson et al. (2019); read-out: inhibition constant (Ki); cited from earlier work.
Another assay has as its system SLP76. The arrangement: method as in Yu et al. (2021). As to conditions: SLP76 PBMC assay; ref Yu et al. (2021); cited from earlier work.
Assay [2] deals with T1, HPK1 kinase. Further details: purchased Invitrogen PV6357; method as in Yu et al. (2021). As to conditions: ref Yu et al. (2021); cited from earlier work.
For a further assay, the system named is HPK1. Further details: method as in Wu et al. (2019). Conditions: ref Wu et al. (2019); cited from earlier work.

T1 sequence (Q92918 whole entry): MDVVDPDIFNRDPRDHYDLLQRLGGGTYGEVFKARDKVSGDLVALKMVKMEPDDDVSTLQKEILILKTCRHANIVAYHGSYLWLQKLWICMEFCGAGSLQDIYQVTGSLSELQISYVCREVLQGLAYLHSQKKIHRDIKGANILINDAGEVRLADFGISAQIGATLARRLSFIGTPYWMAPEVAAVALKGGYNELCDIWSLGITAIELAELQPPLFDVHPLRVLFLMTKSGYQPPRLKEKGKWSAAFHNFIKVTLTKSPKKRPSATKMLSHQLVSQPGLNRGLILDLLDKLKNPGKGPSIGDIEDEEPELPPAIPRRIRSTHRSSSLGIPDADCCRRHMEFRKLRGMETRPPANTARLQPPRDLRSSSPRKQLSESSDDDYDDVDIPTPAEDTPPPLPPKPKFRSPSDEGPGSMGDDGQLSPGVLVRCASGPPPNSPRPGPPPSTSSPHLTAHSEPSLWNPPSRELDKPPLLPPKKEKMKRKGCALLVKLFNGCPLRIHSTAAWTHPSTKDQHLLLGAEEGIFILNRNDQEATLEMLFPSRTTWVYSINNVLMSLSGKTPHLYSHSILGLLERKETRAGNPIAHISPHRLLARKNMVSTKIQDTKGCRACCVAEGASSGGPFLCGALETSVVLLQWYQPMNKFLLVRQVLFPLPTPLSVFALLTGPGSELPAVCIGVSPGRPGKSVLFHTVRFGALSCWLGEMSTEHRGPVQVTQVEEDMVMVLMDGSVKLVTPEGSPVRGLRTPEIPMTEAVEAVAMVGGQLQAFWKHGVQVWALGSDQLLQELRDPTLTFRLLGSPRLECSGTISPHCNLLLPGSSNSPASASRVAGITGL

`O=C1Nc2ccc(Cl)cc2/C1=N/NC(=O)c1cc(Br)ccc1O` [2395-0114]: the IC50 (usually the concentration that inhibits the measured activity by half) on HPK1 kinase [1] worked out at 9590 ± 460 nM.

For `Cc1cc(C)c2c(c1)/C(=N/Nc1ccc(C(=O)N3CCC[C@@H]3C)cc1)C(=O)N2` [V030-2005], the IC50 on HPK1 kinase [1] stood at 9490 ± 540 nM. In the case of `CCN(CC)CCNC(=O)c1c(C)[nH]c(/C=C2\C(=O)Nc3ccc(F)cc32)c1C` [Sunitinib], the Ki (usually the dissociation constant of the complex between target and ligand, obtained from inhibition or displacement) at WT HPK1 kinase is roughly 10 nM.

On to `Cc1cccc(NC(=O)c2n[nH]c3ccccc23)c1` [8016-1815], for which, at HPK1 kinase [1], the IC50 came out at 7550 ± 560 nM and the inhibition (commonly the percentage by which the read-out fell short of the control) at 50 µM is greater than 60%.

For the compound `COc1cccc(F)c1-c1cc2c(cn1)cnn2-c1cccc(N2CCN(C)CC2)n1` [XHS], the results for the IC50 with SLP76 and at HPK1 kinase [2] were 600 nM and 2.6 nM, respectively. On to `CC(C)n1ncc2cnc(Nc3cc(C4CCNC4)nc(N4CCC(F)(F)C4)n3)cc21` (centres unmarked) [GNE-1858], for which, in the assay with HPK1, the IC50 is 1.9 nM. As for `CCCC[C@@H](CC)CNC(=O)c1ccc(N/N=C2\C(=O)Nc3ccccc32)cc1` [V014-4726], at HPK1 kinase [1], the IC50 amounted to 14300 ± 1070 nM and the inhibition at 50 µM was greater than 60%. For the compound `O=C1CCc2cc(NC(=O)c3n[nH]c4ccccc34)ccc2N1` [M074-2865], the IC50 on HPK1 kinase [1] was determined as 2930 ± 90 nM.

These data come from publication PMC8967249, “Discovery of Novel HPK1 Inhibitors Through Structure-Based Virtual Screening” (Frontiers in Pharmacology, 2022).
